Assay results published in ChEMBL document CHEMBL1149100, “New 2,4-diamino-5-(2',5'-substituted benzyl)pyrimidines as potential drugs against opportunistic infections of AIDS and other immune disorders. Synthesis and species-dependent antifolate activity” (J Med Chem, 2004).
In brackets after ≈: the same amount, converted by molar mass.

The molecules below were run on Mycobacterium avium (assay: Minimum inhibitory concentration required against Mycobacterium avium isolate from patient number MAC100).
Format: functional
COc1ccc(C#Cc2ccc(C(=O)O)cc2)cc1Cc1cnc(N)nc1N showed an MIC of over 64 µg/mL.
Molecule CCCCCCCOc1ccc(OC)c(Cc2cnc(N)nc2N)c1 has an MIC of 8 µg/mL (≈ 23.2 µM).
In the case of COc1ccc(CCCCC(=O)O)cc1Cc1cnc(N)nc1N, the MIC is reported as over 32 µg/mL.
Work on COc1ccc(C#Cc2ccccc2C(=O)O)cc1Cc1cnc(N)nc1N yielded an MIC of over 64 µg/mL.
With COc1ccc(C#CCCCC(=O)O)cc1Cc1cnc(N)nc1N the MIC was 8 µg/mL (≈ 23.5 µM).
CCCCCCOc1ccc(OC)c(Cc2cnc(N)nc2N)c1 gave an MIC of 32 µg/mL (≈ 96.8 µM).
Work on COc1ccc(OCc2cccc(C(=O)O)c2)cc1Cc1cnc(N)nc1N yielded an MIC of over 32 µg/mL.

These molecules were tested against T1, Bifunctional dihydrofolate reductase-thymidylate synthase (Toxoplasma gondii, UniProt Q07422) (assay: not given).
T1 sequence (Q07422 whole entry): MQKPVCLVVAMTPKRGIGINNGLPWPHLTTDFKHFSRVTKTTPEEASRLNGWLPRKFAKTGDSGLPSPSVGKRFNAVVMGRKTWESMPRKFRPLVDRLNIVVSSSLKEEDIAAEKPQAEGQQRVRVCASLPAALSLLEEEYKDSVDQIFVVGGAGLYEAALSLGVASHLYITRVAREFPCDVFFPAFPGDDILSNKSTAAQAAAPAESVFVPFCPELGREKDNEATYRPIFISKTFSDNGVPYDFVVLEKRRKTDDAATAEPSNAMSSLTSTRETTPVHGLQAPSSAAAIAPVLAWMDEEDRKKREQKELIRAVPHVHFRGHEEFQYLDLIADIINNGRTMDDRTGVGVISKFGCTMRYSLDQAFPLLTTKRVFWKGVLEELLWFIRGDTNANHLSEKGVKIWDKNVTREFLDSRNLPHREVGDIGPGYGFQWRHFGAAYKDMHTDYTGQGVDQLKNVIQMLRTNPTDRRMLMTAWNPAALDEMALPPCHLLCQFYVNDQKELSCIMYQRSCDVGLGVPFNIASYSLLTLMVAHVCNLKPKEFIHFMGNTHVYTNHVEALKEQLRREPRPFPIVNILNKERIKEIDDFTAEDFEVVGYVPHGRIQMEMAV
Molecule COc1ccc(CCc2ccc(C(=O)O)cc2)cc1Cc1cnc(N)nc1N has an IC50 of 1.5 µM.
COc1ccc(CCCOc2ccccc2C(=O)O)cc1Cc1cnc(N)nc1N gave an IC50 of 0.71 µM.
Work on COc1ccc(/C=C/COc2ccccc2C(=O)O)cc1Cc1cnc(N)nc1N yielded an IC50 of 2.5 µM.
COc1ccc(C#Cc2ccc(C(=O)O)cc2)cc1Cc1cnc(N)nc1N gave an IC50 of 0.34 µM.
COc1ccc(C#Cc2ccccc2C(=O)O)cc1Cc1cnc(N)nc1N was tested, and the IC50 was 1.9 µM.
COc1ccc(CCCOc2cccc(C(=O)O)c2)cc1Cc1cnc(N)nc1N gave an IC50 of 0.21 µM.

Each molecule was assayed against T2, Dihydrofolate reductase (Rattus norvegicus, UniProt Q920D2) (assay: not given).
T2 sequence (Q920D2 whole entry): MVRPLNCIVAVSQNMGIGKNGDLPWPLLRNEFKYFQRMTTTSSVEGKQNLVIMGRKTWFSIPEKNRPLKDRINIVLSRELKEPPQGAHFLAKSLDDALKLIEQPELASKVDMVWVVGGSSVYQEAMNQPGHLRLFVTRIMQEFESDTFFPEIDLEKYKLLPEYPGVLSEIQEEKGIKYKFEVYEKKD
For COc1ccc(CCc2ccc(C(=O)O)cc2)cc1Cc1cnc(N)nc1N, the IC50 was 13 µM.
With COc1ccc(CCCOc2ccccc2C(=O)O)cc1Cc1cnc(N)nc1N the IC50 was 25 µM.
In the case of COc1ccc(/C=C/COc2ccccc2C(=O)O)cc1Cc1cnc(N)nc1N, the IC50 is reported as 6.4 µM.
With COc1ccc(C#Cc2ccc(C(=O)O)cc2)cc1Cc1cnc(N)nc1N the IC50 was 8.2 µM.
With COc1ccc(C#Cc2ccccc2C(=O)O)cc1Cc1cnc(N)nc1N the IC50 was 25 µM.
COc1ccc(CCCOc2cccc(C(=O)O)c2)cc1Cc1cnc(N)nc1N gave an IC50 of 4 µM.

The molecules below were run on Mycobacterium avium (assay: Concentration of compound required against Mycobacterium avium; Range is 2-16 ug/mL).
Format: functional, organism-based
CCCCCCCOc1ccc(OC)c(Cc2cnc(N)nc2N)c1 showed a Concentration of 16 µg/mL.

What follows are molecules tested on Mycobacterium avium (assay: Minimum inhibitory concentration required against Mycobacterium avium isolate from patient number MAC16).
Format: functional
COc1ccc(C#Cc2ccc(C(=O)O)cc2)cc1Cc1cnc(N)nc1N was tested, and the MIC was over 64 µg/mL.
Molecule CCCCCCCOc1ccc(OC)c(Cc2cnc(N)nc2N)c1 has an MIC of 8 µg/mL (≈ 23.2 µM).
Molecule COc1ccc(C#CCCCC(=O)O)cc1Cc1cnc(N)nc1N has an MIC of 8 µg/mL (≈ 23.5 µM).
For CCCCCCOc1ccc(OC)c(Cc2cnc(N)nc2N)c1, the MIC was 32 µg/mL (≈ 96.8 µM).
For COc1ccc(OCc2cccc(C(=O)O)c2)cc1Cc1cnc(N)nc1N, the MIC was over 32 µg/mL.

The molecules below were run on Mycobacterium avium (assay: microbe, parasite or virus in culture).
With COc1cc(Cc2cnc(N)nc2N)cc(OC)c1OC [TRIMETHOPRIM] the MIC was over 64 µg/mL.

Each molecule was assayed against T3, Dihydrofolate reductase (Pneumocystis carinii, UniProt P16184) (assay: not given).
T3 sequence (P16184 whole entry): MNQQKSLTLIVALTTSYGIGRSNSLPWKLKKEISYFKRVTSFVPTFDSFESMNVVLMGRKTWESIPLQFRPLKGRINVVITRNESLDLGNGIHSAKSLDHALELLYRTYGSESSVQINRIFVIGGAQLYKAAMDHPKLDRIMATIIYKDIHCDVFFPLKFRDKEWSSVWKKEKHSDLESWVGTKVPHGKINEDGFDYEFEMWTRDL
Work on COc1ccc(CCc2ccc(C(=O)O)cc2)cc1Cc1cnc(N)nc1N yielded an IC50 of 7.1 µM.
For COc1ccc(CCCOc2ccccc2C(=O)O)cc1Cc1cnc(N)nc1N, the IC50 was 7.8 µM.
COc1ccc(/C=C/COc2ccccc2C(=O)O)cc1Cc1cnc(N)nc1N was tested, and the IC50 was 8.6 µM.
COc1ccc(C#Cc2ccc(C(=O)O)cc2)cc1Cc1cnc(N)nc1N was tested, and the IC50 was 1.3 µM.
In the case of COc1ccc(C#Cc2ccccc2C(=O)O)cc1Cc1cnc(N)nc1N, the IC50 is reported as 4.1 µM.
In the case of COc1ccc(CCCOc2cccc(C(=O)O)c2)cc1Cc1cnc(N)nc1N, the IC50 is reported as 1.1 µM.

These molecules were tested against T4, Dihydrofolate reductase (Mycobacterium avium, UniProt O30463) (assay: not given).
T4 sequence (O30463 whole entry): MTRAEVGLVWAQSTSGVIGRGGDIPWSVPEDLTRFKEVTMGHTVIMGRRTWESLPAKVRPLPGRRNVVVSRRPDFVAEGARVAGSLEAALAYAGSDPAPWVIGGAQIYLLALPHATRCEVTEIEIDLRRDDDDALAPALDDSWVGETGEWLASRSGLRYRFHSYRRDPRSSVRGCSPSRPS
COc1ccc(CCc2ccc(C(=O)O)cc2)cc1Cc1cnc(N)nc1N showed an IC50 of 0.025 µM.
With COc1ccc(CCCOc2ccccc2C(=O)O)cc1Cc1cnc(N)nc1N the IC50 was 0.31 µM.
With COc1ccc(/C=C/COc2ccccc2C(=O)O)cc1Cc1cnc(N)nc1N the IC50 was 0.38 µM.
Work on COc1cc(Cc2cnc3nc(N)nc(N)c3c2C)cc(OC)c1 yielded an IC50 of 0.00064 µM.
COc1ccc(C#Cc2ccc(C(=O)O)cc2)cc1Cc1cnc(N)nc1N showed an IC50 of 0.0037 µM.
In the case of Cc1ccc(Cl)cc1Cc1cnc2nc(N)nc(N)c2c1C, the IC50 is reported as 0.00019 µM.
COc1ccc(C#Cc2ccccc2C(=O)O)cc1Cc1cnc(N)nc1N showed an IC50 of 0.1 µM.
COc1ccc(CCCOc2cccc(C(=O)O)c2)cc1Cc1cnc(N)nc1N was tested, and the IC50 was 0.025 µM.

The molecules below were run on Mycobacterium avium (assay: Minimum inhibitory concentration required against Mycobacterium avium isolate from patient number MAC109).
Format: functional
COc1ccc(C#Cc2ccc(C(=O)O)cc2)cc1Cc1cnc(N)nc1N showed an MIC of over 64 µg/mL.
Molecule CCCCCCCOc1ccc(OC)c(Cc2cnc(N)nc2N)c1 has an MIC of 8 µg/mL (≈ 23.2 µM).
With COc1ccc(CCCCC(=O)O)cc1Cc1cnc(N)nc1N the MIC was over 32 µg/mL.
COc1ccc(C#Cc2ccccc2C(=O)O)cc1Cc1cnc(N)nc1N showed an MIC of over 64 µg/mL.
With COc1ccc(C#CCCCC(=O)O)cc1Cc1cnc(N)nc1N the MIC was 16 µg/mL (≈ 47 µM).
In the case of CCCCCCOc1ccc(OC)c(Cc2cnc(N)nc2N)c1, the MIC is reported as 32 µg/mL (≈ 96.8 µM).
With COc1ccc(OCc2cccc(C(=O)O)c2)cc1Cc1cnc(N)nc1N the MIC was over 32 µg/mL.

The molecules below were run on Mycobacterium avium (assay: Minimum inhibitory concentration required against Mycobacterium avium isolate from patient number MAC101).
Format: functional
With COc1ccc(C#Cc2ccc(C(=O)O)cc2)cc1Cc1cnc(N)nc1N the MIC was over 64 µg/mL.
For CCCCCCCOc1ccc(OC)c(Cc2cnc(N)nc2N)c1, the MIC was 4 µg/mL (≈ 11.6 µM).
COc1ccc(CCCCC(=O)O)cc1Cc1cnc(N)nc1N showed an MIC of over 32 µg/mL.
For COc1ccc(C#Cc2ccccc2C(=O)O)cc1Cc1cnc(N)nc1N, the MIC was over 64 µg/mL.
In the case of COc1ccc(C#CCCCC(=O)O)cc1Cc1cnc(N)nc1N, the MIC is reported as 4 µg/mL (≈ 11.8 µM).
For CCCCCCOc1ccc(OC)c(Cc2cnc(N)nc2N)c1, the MIC was 32 µg/mL (≈ 96.8 µM).
COc1ccc(OCc2cccc(C(=O)O)c2)cc1Cc1cnc(N)nc1N gave an MIC of over 32 µg/mL.

What follows are molecules tested on Mycobacterium avium (assay: Minimum inhibitory concentration required against Mycobacterium avium isolate from patient number MAC108).
Format: functional
Work on COc1ccc(C#Cc2ccc(C(=O)O)cc2)cc1Cc1cnc(N)nc1N yielded an MIC of over 64 µg/mL.
CCCCCCCOc1ccc(OC)c(Cc2cnc(N)nc2N)c1 was tested, and the MIC was 8 µg/mL (≈ 23.2 µM).
COc1ccc(CCCCC(=O)O)cc1Cc1cnc(N)nc1N gave an MIC of over 32 µg/mL.
COc1ccc(C#Cc2ccccc2C(=O)O)cc1Cc1cnc(N)nc1N showed an MIC of over 64 µg/mL.
COc1ccc(C#CCCCC(=O)O)cc1Cc1cnc(N)nc1N gave an MIC of 32 µg/mL (≈ 94 µM).
With CCCCCCOc1ccc(OC)c(Cc2cnc(N)nc2N)c1 the MIC was 32 µg/mL (≈ 96.8 µM).
COc1ccc(OCc2cccc(C(=O)O)c2)cc1Cc1cnc(N)nc1N gave an MIC of over 32 µg/mL.

What follows are molecules tested on Mycobacterium avium (assay: Minimum inhibitory concentration required against Mycobacterium avium isolate from patient number MAC116).
Format: functional
Work on COc1ccc(CCCCC(=O)O)cc1Cc1cnc(N)nc1N yielded an MIC of over 32 µg/mL.
With COc1ccc(C#Cc2ccccc2C(=O)O)cc1Cc1cnc(N)nc1N the MIC was over 64 µg/mL.

What follows are molecules tested on Mycobacterium avium (assay: Minimum inhibitory concentration required for 90 percent inhibition of Mycobacterium avium isolate).
Format: functional
With CCCCCCCOc1ccc(OC)c(Cc2cnc(N)nc2N)c1 the MIC90 was 8 µg/mL (≈ 23.2 µM).
For COc1ccc(C#CCCCC(=O)O)cc1Cc1cnc(N)nc1N, the MIC90 was 16 µg/mL (≈ 47 µM).

The molecules below were run on Mycobacterium avium (assay: Minimum inhibitory concentration required for 50 percent inhibition of Mycobacterium avium isolate).
Format: functional
In the case of CCCCCCCOc1ccc(OC)c(Cc2cnc(N)nc2N)c1, the MIC50 is reported as 8 µg/mL (≈ 23.2 µM).
With COc1ccc(C#CCCCC(=O)O)cc1Cc1cnc(N)nc1N the MIC50 was 8 µg/mL (≈ 23.5 µM).

What follows are molecules tested on Mycobacterium avium (assay: Concentration of compound required against Mycobacterium avium; Range is 4-32).
Format: functional, organism-based
COc1ccc(C#CCCCC(=O)O)cc1Cc1cnc(N)nc1N gave a Concentration of 32 µg/mL.
